Values quoted from earlier work as cited in article PMC9099118 (Clinical and Translational Science, 2022).

Settings: Genuair multidose DPI, HVs; cited from earlier work

**Q.** Which “mean emitted lung dose” value does the source give for `O=C(O[C@H]1C[N+]2(CCCOc3ccccc3)CCC1CC2)C(O)(c1cccs1)c1cccs1` [aclidinium bromide] here?
**A.** approximately 35%
